Results from patent publication US12559487B2, “Crosslinked optically active secondary amine derivative” (Sumitomo Pharma Co., Ltd., priority 2019, dated 2026).

Key:
MV4; 11 cells = test: Test 1: Test for evaluating the inhibition of cell proliferation; type: cell-based; settings: cultured for 7 days, PrestoBlue cell viability
Procedure: MV4; 11 cells were obtained from American Type Culture Collection (ATCC). The cells were cultured at 37° C. in the presence of 5% CO2 in RPMI 1640 medium containing 10% fetal bovine serum and 1% penicillin/streptomycin.
The cells were plated to a 96-well plate in 2000 cells/well, each test compound was added thereto to adjust the final concentration of DMSO to 0.1% of DMSO, and the cells were cultured for 7 days. After the cultivation, the cell viability was calculated with PrestoBlue™ Cell Viability Reagent (Invitrogen, A13261).

[1] = target: hERG (human Ether-a-go-go Related Gene) (Homo sapiens (Human), UniProt Q12809)
Chain of hERG (human Ether-a-go-go Related Gene) (Q12809 whole entry): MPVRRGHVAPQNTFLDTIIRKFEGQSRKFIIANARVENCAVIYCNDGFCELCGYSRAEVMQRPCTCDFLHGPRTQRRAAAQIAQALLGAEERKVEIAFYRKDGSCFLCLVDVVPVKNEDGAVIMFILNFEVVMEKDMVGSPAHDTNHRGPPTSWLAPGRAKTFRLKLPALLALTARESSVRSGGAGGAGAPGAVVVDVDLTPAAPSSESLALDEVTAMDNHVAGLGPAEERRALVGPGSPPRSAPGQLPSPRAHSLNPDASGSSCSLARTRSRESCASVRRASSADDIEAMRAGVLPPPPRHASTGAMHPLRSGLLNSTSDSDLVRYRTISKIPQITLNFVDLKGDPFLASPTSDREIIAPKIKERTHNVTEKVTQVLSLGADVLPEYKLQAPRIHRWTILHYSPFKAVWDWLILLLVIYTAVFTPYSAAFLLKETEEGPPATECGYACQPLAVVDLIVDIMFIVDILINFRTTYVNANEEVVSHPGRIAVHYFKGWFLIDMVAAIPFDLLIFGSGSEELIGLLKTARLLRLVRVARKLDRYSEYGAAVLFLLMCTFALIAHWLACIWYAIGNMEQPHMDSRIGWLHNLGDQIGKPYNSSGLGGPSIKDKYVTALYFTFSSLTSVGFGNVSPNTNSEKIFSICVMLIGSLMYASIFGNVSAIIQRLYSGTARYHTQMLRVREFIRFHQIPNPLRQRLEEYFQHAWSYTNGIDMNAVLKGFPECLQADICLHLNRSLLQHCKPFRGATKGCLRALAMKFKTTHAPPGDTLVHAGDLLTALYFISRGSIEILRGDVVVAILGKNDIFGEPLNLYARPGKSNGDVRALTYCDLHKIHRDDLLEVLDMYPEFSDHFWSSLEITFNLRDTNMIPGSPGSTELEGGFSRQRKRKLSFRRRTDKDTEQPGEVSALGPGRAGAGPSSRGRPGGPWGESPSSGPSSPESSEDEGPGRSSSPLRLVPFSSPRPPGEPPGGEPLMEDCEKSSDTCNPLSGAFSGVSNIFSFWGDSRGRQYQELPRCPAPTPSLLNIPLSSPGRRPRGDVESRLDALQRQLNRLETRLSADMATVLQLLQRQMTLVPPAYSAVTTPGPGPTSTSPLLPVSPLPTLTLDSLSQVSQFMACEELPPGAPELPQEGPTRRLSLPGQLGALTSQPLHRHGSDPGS

Substance	IC50 (MV4; 11 cells) [nM]	hERG/MV4; 11 [1]
5-fluoro-N-methyl-2-(3-{1-[(1S,3S,4R)-5-methylidene-2-azabicyclo[2.2.1]heptane-3-carbonyl]azepan-4-yl}-1H-pyrrolo[2,3-c]pyridin-1-yl)-N-(propan-2-yl)benzamide [Example 13]	130	198
(3S)—N-[(1S)-3-(1-{4-fluoro-2-[methyl(propan-2-yl)carbamoyl]phenyl}-1H-pyrrolo[2,3-c]pyridin-3-yl)cyclohexyl]-2-azabicyclo[2.2.2]octane-3-carboxamide [Example 30]	550	13
